Molecules are shown by their SMILES.

These results are taken from patent US10696642B2, “TEAD transcription factor autopalmitoylation inhibitors” (The General Hospital Corporation, priority 2015, dated 2020).

Assay [1] deals with MCF10A+YAP cells. Description: Cell proliferation assay, YAP transformed MCF10A. As to conditions: 500 cells/well, 10 μM (FIG. 20). Type of assay: cell-based. On the procedure: In addition, the cells were treated with compound 4 (10 μM) or DMSO controls to evaluate cell viability.
(§1) Human cancer cell lines (HuH7, JHH7), transformed MCF10A-YAP and mouse Lats1/2 DKO cells were cultured in 5% FBS containing media. The cells were seeded into 96-well plate with 500 cells/well. Various concentrations of compounds (10 nM to 20 μM) or DMSO control were added into the wells. The cells were further incubated for 2-5 days. The cell viability is determined by using CellTiter Glo (Promega). The data were then normalized with DMSO control and plotted in Prism software Human melanoma cell A375 and dermal fibroblasts are control cells and are tested similarly.

The subject of assay [2] is HuH7 cells. Description: Colony formation, HuH7. Type of assay: cell-based, human. As to the method: Assays were performed to measure inhibition of cancer cell proliferation in HuH7 cells by compounds (4), (22) and (36), which were each tested at 0-20 μM.
For assay [3], the target named is T1, TEAD4-YAP interaction (Homo sapiens, UniProt Q15561).
T1 construct: Myc; expressed in transfected cells; host or cells: HEK293A
Description: Co-immunoprecipitation of TEAD4 and YAP. The assay is classed as cell-based. As to conditions: 0 to 10 μM (FIG. 25). On the procedure: (§2) HEK293A cells were transfected with the indicated above. After 48 h, cells were lysed with lysis buffer (50 mM Tris-HCl, pH 7.3, 150 mM NaCl, 0.5 mM EDTA, 1% Triton X-100, PhosSTOP phosphatase inhibitor cocktail, cOmplete EDTA-free protease inhibitors cocktail). Flag-YAP or Myc-TEAD1 was immunoprecipitated with anti-FLAG M2 magnetic beads (Sigma Aldrich) or anti-c-Myc antibody (M4439, Sigma Aldrich), respectively, overnight with rotation at 4° C. TEAD1 was captured using Protein A/G magnetic resins (Life technologies). Protein-bound resins were washed three times with lysis buffer and processed with SDS-PAGE sample buffer. Blots were probed with anti-c-Myc (Sigma Aldrich), anti-HA (Sigma Aldrich), anti-FLAG M2 (F1804, Sigma Aldrich).
Co-immunoprecipitation assays of TEAD4 and YAP were performed. The ability of compound (4) (“CP-1”) to inhibit to inhibit the TEAD4-YAP interaction was tested at concentrations in the range from 0 to 10 μM.

For assay [4], the target named is T2, TEAD1-Vgll4 interaction (Homo sapiens, UniProt P28347).
T2 construct: Myc; expressed in transfected cells; host or cells: HEK293A
The assay is described as follows: Co-immunoprecipitation of TEAD1 and Vgll4. The assay is classed as cell-based. As to conditions: 0 to 10 μM (FIG. 26). As to the method: as §2
Co-immunoprecipitation assays of TEAD1 and Vgll4 were performed. The ability of compound (4) (“CP-1”) to inhibit to inhibit the TEAD1-Vgll4 interaction was tested at concentrations in the range from 0 to 10 μM.

Assay [5] has as its system HuH7 cells. The assay is described as follows: Cell proliferation assay, HuH7. Type of assay: cell-based, human. As to the method: as §1
Assays were performed to measure inhibition of cancer cell proliferation by compound (4). The ability of compound (4) (“CP-1”) to inhibit proliferation cell proliferation in the human hepatocellular carcinoma cell lines HuH7 and JHH7, and in the breast cancer cell line MDA-MB-453. The compound was also tested against the SK-HEP-1 (adenocarcinoma), BT-474 (breast tumor), OCUB-M (breast carcinoma), HCC1143 (ductal carcinoma), EVSA-T (ductal carcinoma) and BT-20 (breast carcinoma) cell lines.

The subject of assay [6] is DHHC4. The assay is described as follows: Selectivity assay: palmitoyl acyltransferase DHHC4. Type of assay: biochemical. To be noted: 0 to 10 μM (FIG. 27). On the procedure: Assays were performed to measure inhibition of TEAD4 palmitoylation compared with other palmitoyl acyltransferses, DHHC4, DHHC7 and DHHC11. The ability of compound (4) (“CP-1”) to inhibit palmitoylation was tested at concentrations in the range from 0 to 10 μM and the amount of palmitoylation was quantified.

T1 sequence (Q15561 whole entry): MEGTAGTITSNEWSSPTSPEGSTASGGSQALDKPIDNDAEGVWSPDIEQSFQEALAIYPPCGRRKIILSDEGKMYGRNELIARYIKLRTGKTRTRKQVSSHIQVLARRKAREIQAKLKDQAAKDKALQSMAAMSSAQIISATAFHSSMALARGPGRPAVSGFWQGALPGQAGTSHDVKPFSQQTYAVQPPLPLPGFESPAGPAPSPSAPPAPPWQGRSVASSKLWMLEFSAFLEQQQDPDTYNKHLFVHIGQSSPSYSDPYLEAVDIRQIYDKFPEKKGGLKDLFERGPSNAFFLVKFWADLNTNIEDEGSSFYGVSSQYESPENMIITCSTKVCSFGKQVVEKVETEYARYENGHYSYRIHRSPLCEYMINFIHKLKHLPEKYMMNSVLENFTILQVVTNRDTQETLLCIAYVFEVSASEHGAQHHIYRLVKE
T2 sequence (P28347 whole entry): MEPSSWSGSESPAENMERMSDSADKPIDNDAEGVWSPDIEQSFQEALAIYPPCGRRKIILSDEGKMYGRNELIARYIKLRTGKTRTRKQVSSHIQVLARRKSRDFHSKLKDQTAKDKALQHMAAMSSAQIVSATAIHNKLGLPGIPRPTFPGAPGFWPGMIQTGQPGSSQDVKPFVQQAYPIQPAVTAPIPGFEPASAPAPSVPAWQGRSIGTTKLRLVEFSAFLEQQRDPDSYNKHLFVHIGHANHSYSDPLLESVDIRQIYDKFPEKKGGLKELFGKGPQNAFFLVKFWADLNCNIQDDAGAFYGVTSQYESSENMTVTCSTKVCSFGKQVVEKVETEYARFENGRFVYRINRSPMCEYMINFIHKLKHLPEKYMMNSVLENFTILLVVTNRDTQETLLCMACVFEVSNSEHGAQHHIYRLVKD

Take `O=C(CSc1nnc[nH]1)Nc1ccc(C23CC4CC(CC(C4)C2)C3)cc1` [Compound 4]: the “inhibition of YAP-dependent cancer cell proliferation” value is “inhibits” in assay [1] and “inhibits” in assay [5] (HuH7, 500 cells/well, 10 μM (FIG. 19)). In addition, the “inhibition of colony formation” value in assay [2] (HuH7 (FIG. 28 panel B)) is on record as “inhibits”. For the same molecule, in assay [2] (tested at 0-20 μM (FIG. 29)), the “inhibition of cancer cell proliferation / colony formation in HuH7 cells” value is “effective”. Besides, the “inhibition of the interaction of TEAD4 with YAP” value in assay [3] is given as “dose-dependently inhibited”. Also, the “effect on the interaction of TEAD1 with Vgll4” value in assay [4] is “did not affect”. This molecule also registered an IC50 in assay [5] (Homo sapiens, Huh-7, FIG. 28 panel C) of 1.6 µM. Moreover, in assay [5] (HuH7 (FIG. 28 panel A)), the “inhibition of cell proliferation, dose dependency” value is “dose-dependently inhibits”. The “inhibition of palmitoylation with DHHC4” value in assay [6] was “did not inhibit”.
